Data set [1] is filed under the species Canis familiaris. In words: Inhibition of the response to phenethylamine was measured. The class given is functional. The settings on record: Canis lupus familiaris.
The next data set has as its target T1, Monoamine oxidase (Rattus norvegicus, UniProt P19643+P21396).
T1 sequence (P19643 whole entry): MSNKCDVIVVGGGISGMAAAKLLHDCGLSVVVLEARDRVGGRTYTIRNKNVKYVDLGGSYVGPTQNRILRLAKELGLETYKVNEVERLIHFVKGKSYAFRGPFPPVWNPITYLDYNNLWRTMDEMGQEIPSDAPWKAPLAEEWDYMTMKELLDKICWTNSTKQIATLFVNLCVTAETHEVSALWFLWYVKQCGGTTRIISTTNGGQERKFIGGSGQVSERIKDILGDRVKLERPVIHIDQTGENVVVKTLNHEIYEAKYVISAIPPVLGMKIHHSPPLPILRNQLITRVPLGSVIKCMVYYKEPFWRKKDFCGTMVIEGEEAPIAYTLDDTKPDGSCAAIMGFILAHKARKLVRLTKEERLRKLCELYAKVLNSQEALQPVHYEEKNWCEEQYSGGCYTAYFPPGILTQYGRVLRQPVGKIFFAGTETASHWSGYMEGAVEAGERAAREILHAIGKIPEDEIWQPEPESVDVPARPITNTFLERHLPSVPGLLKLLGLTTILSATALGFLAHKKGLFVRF
T1 sequence (P21396 whole entry): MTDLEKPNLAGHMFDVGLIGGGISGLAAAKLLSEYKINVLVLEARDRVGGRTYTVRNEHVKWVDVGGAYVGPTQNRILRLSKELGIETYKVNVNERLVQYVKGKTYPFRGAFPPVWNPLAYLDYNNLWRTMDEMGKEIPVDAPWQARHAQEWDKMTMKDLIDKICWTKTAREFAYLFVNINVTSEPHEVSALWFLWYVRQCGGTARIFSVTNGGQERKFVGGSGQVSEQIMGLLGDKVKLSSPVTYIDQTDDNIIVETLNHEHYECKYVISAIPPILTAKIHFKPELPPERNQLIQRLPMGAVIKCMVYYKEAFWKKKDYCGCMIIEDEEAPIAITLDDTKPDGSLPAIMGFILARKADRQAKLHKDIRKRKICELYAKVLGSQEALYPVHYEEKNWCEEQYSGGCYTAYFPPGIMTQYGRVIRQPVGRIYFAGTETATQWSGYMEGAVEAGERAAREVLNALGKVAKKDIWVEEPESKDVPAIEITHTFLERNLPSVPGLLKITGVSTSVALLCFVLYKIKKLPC
Put plainly: In vitro inhibitory concentration against monoamine oxidase with 5-HT as substrate. The class given is protein assay. The conditions noted are these: mouse.

Data set [2] relates to Mus musculus. Put plainly: Effective dose (p.o.) required to reverse ptosis induced by tetrabenazine in mouse. The class given is functional. The settings on record: po.
The species named for data set [3] is Mus musculus. In words: Effective dose against oxotremorine induced lacrimation. The class given is functional.
Data set [4] is filed under the species Mus musculus. In words: Effective dose against oxotremorine induced tremor. The class given is functional.
A further data set relates to Rattus norvegicus. In words: Effective dose (p.o.) required to reverse ptosis induced by tetrabenazine in rat. The class given is functional. The conditions noted are these: po.
Data set [5] is filed under the species Canis familiaris. In words: Potentiation of the response to norepinephrine was measured. The conditions noted are these: Canis lupus familiaris. The class given is functional.
Data set [6] is described as follows: Acute toxicity (p.o.) after 24 hr was determined in mouse. The class given is organism-based. The conditions noted are these: in vivo, po.

In general, ED50 refers to the midpoint of the dose-response relation. On to `Cl.c1ccc2c(c1)C1c3ccccc3C2C2CNCCC12` (stereo not drawn), for which the ED50 in the data set filed under Canis familiaris [1] was 1.2 mg/kg; with Mus musculus [2], 0.41 mg/kg; in the data set filed under Mus musculus [3], greater than 243 mg/kg; in the data set listed under Mus musculus [4], greater than 243 mg/kg; with Rattus norvegicus, 0.5 mg/kg; in the data set filed under Canis familiaris [5], 0.22 mg/kg. On Monoamine oxidase, the KI50 is recorded as greater than 0.001 M l-1.

`CN1CCC2C3c4ccccc4C(c4ccccc43)C2C1.Cl` (stereo not drawn): the ED50 in the data set on Mus musculus [2] came to 1 mg/kg; in the data set filed under Mus musculus [3], 36 mg/kg; in the data set listed under Mus musculus [4] it was 100 mg/kg.

In general, LD50 refers to the dose at which mortality reaches 50%. Read a high LD50 as a less toxic substance. With `CN(C)CCC=C1c2ccccc2CCc2ccccc21` [AMITRIPTYLINE], the ED50 amounted to 1.1 mg/kg in the data set filed under Canis familiaris [1]; 1.3 mg/kg in the data set on Mus musculus [2]; 27 mg/kg in the data set listed under Mus musculus [3]; 21 mg/kg in the data set listed under Mus musculus [4]; 12 mg/kg in the data set on Rattus norvegicus; 1 mg/kg in the data set filed under Canis familiaris [5]. In data set [6], this compound returned an LD50 at 24 h of 177 mg/kg.

For `CN(C)CCCN1c2ccccc2CCc2ccccc21` [IMIPRAMINE], the ED50 came to 1.5 mg/kg in the data set filed under Canis familiaris [1]; 1.3 mg/kg in the data set with Mus musculus [2]; 130 mg/kg in the data set filed under Mus musculus [3]; 70 mg/kg in the data set filed under Mus musculus [4]; 4.12 mg/kg with Rattus norvegicus; 3 mg/kg in the data set filed under Canis familiaris [5].

(Values after ChEMBL document CHEMBL1122795 (J Med Chem, 1984).)
